The subject of assay [1] is NCI-H358 non-small cell lung cancer cells. Kind of assay: Inhibition of NCI-H358 cell proliferation (CellTiter-Glo 3D, 7 days). In kind it is cell-based. To be noted: Homo sapiens, NCI-H358, 168 h, 3D microspheres, read-out: Inhibitory activity against NCI-H358 cell proliferation (IC50). Here is the method: The number of viable cells were detected by CellTiter-Glo 3D® reagent, thereby evaluating the inhibitory effect of compounds on cell proliferation. NCI-H358 non-small cell lung cancer cells (Nanjing cobioer) in the exponential growth phase were digested with trypsin-EDTA, and seeded into 96-well ultra-low attachment microplates at 100 µL per well with a density of 2000 cells/well. The cells were cultured overnight at 37°C with 5% CO2 to form microspheres. The test compounds were serially diluted 5-fold with DMSO to obtain 8 concentration gradient dilutions, then diluted with RPMI-1640 (10% FBS) cell culture medium respectively to obtain compound working solutions (2×). 100 µL per well was added to the cell supernatant, and the culture was continued for 7 days under the conditions of 37°C and 5% CO2. The well plate was removed, and 100 µL of CellTiter-Glo 3D® reagent was added. After lysis at room temperature for 10-30 minutes, 70 µL of the lysate was aspirated and transferred to a white opaque 384-well plate.
The inhibition rate was calculated by the following formula: [formula] Note: The negative control refers to the group without inhibitor, and the blank refers to the group without cells.
The inhibitory activities of some Example compounds and comparative compounds against NCI-H358 cell proliferation are shown in Table 2. Table 2. Inhibitory activity of some Example compounds against NCI-H358 cell proliferation
In general terms: Cellular ATP, detected with luciferase, serves as a proxy for viable cell number.

Another assay addresses T1, SOS1 (Homo sapiens, UniProt Q07889).
T1 sequence (Q07889 1-1333): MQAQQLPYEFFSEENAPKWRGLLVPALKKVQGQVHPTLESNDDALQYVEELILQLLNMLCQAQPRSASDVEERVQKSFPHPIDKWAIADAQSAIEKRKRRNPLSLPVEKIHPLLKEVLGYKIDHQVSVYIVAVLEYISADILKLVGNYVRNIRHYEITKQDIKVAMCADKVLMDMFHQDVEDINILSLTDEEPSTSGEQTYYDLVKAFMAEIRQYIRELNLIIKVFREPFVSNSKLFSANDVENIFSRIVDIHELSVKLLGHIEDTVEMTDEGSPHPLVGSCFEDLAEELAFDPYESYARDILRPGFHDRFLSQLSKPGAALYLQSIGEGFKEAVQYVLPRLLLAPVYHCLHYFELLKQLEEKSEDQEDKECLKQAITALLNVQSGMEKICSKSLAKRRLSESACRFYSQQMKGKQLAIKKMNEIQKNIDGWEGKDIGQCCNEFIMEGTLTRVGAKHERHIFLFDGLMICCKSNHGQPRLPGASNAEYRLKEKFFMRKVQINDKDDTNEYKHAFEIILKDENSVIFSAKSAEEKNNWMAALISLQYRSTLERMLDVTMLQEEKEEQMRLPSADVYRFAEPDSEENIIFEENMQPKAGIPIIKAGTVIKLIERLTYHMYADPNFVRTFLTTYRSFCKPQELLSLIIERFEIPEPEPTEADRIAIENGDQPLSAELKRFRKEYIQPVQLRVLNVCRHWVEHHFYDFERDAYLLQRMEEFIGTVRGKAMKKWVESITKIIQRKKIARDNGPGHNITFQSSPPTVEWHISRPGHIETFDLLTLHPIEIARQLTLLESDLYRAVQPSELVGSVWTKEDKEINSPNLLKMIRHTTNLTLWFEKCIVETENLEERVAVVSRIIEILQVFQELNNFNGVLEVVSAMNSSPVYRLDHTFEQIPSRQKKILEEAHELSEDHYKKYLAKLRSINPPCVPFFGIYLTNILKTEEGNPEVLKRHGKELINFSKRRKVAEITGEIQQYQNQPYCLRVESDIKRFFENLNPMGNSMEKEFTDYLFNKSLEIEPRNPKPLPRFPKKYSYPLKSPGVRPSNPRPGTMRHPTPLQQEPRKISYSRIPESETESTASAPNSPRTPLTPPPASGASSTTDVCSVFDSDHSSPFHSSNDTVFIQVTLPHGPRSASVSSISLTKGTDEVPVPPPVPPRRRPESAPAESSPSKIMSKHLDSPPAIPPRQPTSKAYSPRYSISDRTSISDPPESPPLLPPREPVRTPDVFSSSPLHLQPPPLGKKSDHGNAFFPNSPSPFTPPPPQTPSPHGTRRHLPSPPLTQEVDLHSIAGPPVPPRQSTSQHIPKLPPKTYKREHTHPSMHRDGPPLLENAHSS
Kind of assay: biochemical.

SMILES strings stand for the structures. Structures can show the parent of a compound that is named as a salt.

Consider `C[C@@H](Nc1nnc(N2CCN(C)CC2)c2cc(=O)n(C3(C)CC3)cc12)c1cccc(C(F)(F)F)c1` [Example 157, (R)-1-(4-methylpiperazin-1-yl)-6-(1-methylcyclopropyl)-4-((1-(3-(trifluoromethyl)phenyl)ethyl)amino)pyr ido[3,4-d]pyridazin-7(6H)-one formate], for which the IC50 in assay [1] was 52.2 nM; on SOS1 it was 5.1 nM.

On to `C[C@@H](Nc1nnc(N2CCN(C)CC2)c2cc(=O)n(C3CC3)cc12)c1cccc(S(F)(F)(F)(F)F)c1` [Example 89, (R)-6-cyclopropyl-1-(4-methylpiperazin-1-yl)-4-((1-(3-(pentafluoro-λ^6-sulfaneyl)phenyl)ethyl)amino)pyrido[3,4-d]pyridazin-7(6H)-one], for which the IC50 was determined as 58.6 nM in assay [1] and 4.1 nM against SOS1.

Turning to `Cc1c([C@@H](C)Nc2nnc(N3CCN(C)CC3)c3cc(=O)n(C4(C)CC4)cc23)cccc1C(F)(F)F` [Example 81, (R)-4-((1-(2-methyl-3-(trifluoromethyl)phenyl)ethyl)amino)-6-(1-methylcyclopropyl)-1-(4-methylpiperazin-1-yl)pyrido[3,4-d]pyridazin-7(6H)-one], the results for the IC50 (in assay [1]; against SOS1) were 65.3 nM and 6.3 nM, respectively.

In the case of `Cc1c([C@@H](C)Nc2nnc(N3CCCC3)c3cc(=O)n(C4CC4)cc23)cccc1C(F)(F)F` [Example 49, (R)-6-cyclopropyl-4-((1-(2-methyl-3-(trifluoromethyl)phenyl)ethyl)amino)-1-(pyrrolidin-1-yl) pyrido[3,4-d]pyridazin-7(6H)-one], the results for the IC50 (in assay [1]; against SOS1) were 55.1 nM and 6 nM, respectively.

Consider `C[C@@H]1CN(c2nnc(N[C@H](C)c3cccc(C(F)(F)F)c3)c3cn(C4(C)CC4)c(=O)cc23)CCN1C` [Example 176, 1-((R)-3,4-dimethylpiperazin-1-yl)-6-(1-methylcyclopropyl)-4-(((R)-1-(3-(trifluoromethyl)phenyl)ethyl)amino)pyr ido[3,4-d]pyridazin-7(6H)-one formate], for which the IC50 is 32.3 nM in assay [1] and 6 nM against SOS1.

With `C[C@@H](Nc1nnc(N2CCN(C)CC2)c2cc(=O)n(N3CCN(C)CC3)cc12)c1cccc(C(F)F)c1F` [Example 151, (R)-4-((1-(3-(difluoromethyl)-2-fluorophenyl)ethyl)amino)-1,6-bis(4-methylpiperazin-1-yl)pyrido[3,4-d]pyridazin-7(6H)-one], the IC50 worked out at 39.4 nM in assay [1] and 3.8 nM at SOS1.

`C[C@@H](Nc1nnc(NC2CCOC2)c2cc(=O)n(C3(C)CC3)cc12)c1cccc(C(F)F)c1F` (stereo partly drawn) [Example 119, 4-(((R)-1-(3-(difluoromethyl)-2-fluorophenyl)ethyl)amino)-6-(1-methylcyclopropyl)-1-((tetrahydrofuran-3-yl)amino)pyrido[3,4-d]pyridazin-7(6H)-one formate]: the IC50 in assay [1] was 59.1 nM; on SOS1, 4.3 nM.

For `CCN1CCN(c2nnc(N[C@H](C)c3cccc(C(F)(F)CO)c3)c3cn(C4(C)CC4)c(=O)cc23)CC1` [Example 227, (R)-4-((1-(3-(1,1-difluoro-2-hydroxyethyl)phenyl)ethyl)amino)-1-(4-ethylpiperazin-1-yl)-6-(1-methylcyclopropyl) pyrido[3,4-d]pyridazin-7(6H)-one], the IC50 came out at 48.2 nM in assay [1] and 3.8 nM against SOS1.

For `CC1CN(c2nnc(N[C@H](C)c3cccc(C(F)F)c3F)c3cn(C4(C)CC4)c(=O)cc23)C1` [Example 130, (R)-4-((1-(3-(difluoromethyl)-2-fluorophenyl)ethyl)amino)-1-(3-methylazetidin-1-yl)-6-(1-methylcyclopropyl) pyrido[3,4-d]pyridazin-7(6H)-one], the IC50 in assay [1] was determined as 47.8 nM; on SOS1, 3.4 nM.

`C[C@@H](Nc1nnc(N2CCN3CCCC3C2)c2cc(=O)n(C3(C)CC3)cc12)c1cccc(C(F)F)c1F` (stereo partly drawn) [Example 192, 4-(((R)-1-(3-(difluoromethyl)-2-fluorophenyl)ethyl)amino)-1-(hexahydropyrrolo[1,2-a]pyrazin-2(1H)-yl)-6-(1-methylcyclopropyl) pyrido[3,4-d]pyridazin-7(6H)-one]: the IC50 in assay [1] was determined as 28.8 nM; against SOS1, 3.8 nM.

As to `Cc1c([C@@H](C)Nc2nnc(N3CCCC3)c3cc(=O)n(C4(C)CC4)cc23)cccc1C(F)(F)F` [Example 61, (R)-4-((1-(2-methyl-3-(trifluoromethyl)phenyl)ethyl)amino)-6-(1-methylcyclopropyl)-1-(pyrrolidin-1-yl)pyrido[3,4-d]pyridazin-7(6H)-one], the results for the IC50 (in assay [1]; against SOS1) were 31.8 nM and 6.1 nM, respectively.

`C[C@@H](Nc1nnc(N2CCCC2)c2cc(=O)n(C3(C)CC3)cc12)c1cccc(C(F)F)c1F` [Example 5, (R)-4-((1-(3-(difluoromethyl)-2-fluorophenyl)ethyl)amino)-6-(1-methylcyclopropyl)-1-(pyrrolidin-1-yl)pyrido[3,4-d]pyridazin-7(6H)-one]: the IC50 in assay [1] is 50.1 nM; on SOS1 it was 4.7 nM.

Consider `C[C@@H](Nc1nnc(N2CCN(C)CC2)c2cc(=O)n(C3(C)CC3)cc12)c1cccc(C(F)(F)F)c1F` [Example 164, (R)-4-((1-(2-fluoro-3-(trifluoromethyl)phenyl)ethyl)amino)-6-(1-methylcyclopropyl)-1-(4-methylpiperazin-1-yl)pyrido[3,4-d]pyridazin-7(6H)-one], for which the IC50 in assay [1] worked out at 32.8 nM; against SOS1 it was 4.2 nM.

In the case of `CCN1CCN(c2nnc(N[C@H](C)c3cccc(C(F)(F)F)c3)c3cn(C4(C)CC4)c(=O)cc23)CC1` [Example 156, (R)-1-(4-ethylpiperazin-1-yl)-6-(1-methylcyclopropyl)-4-((1-(3-(trifluoromethyl)phenyl)ethyl)amino)pyr ido[3,4-d]pyridazin-7(6H)-one formate], the figures for the IC50 (in assay [1]; against SOS1) were 47.4 nM and 5.4 nM, respectively.

As for `CCNc1nnc(N[C@H](C)c2cccc(C(F)F)c2F)c2cn(C3(C)CC3)c(=O)cc12` [Example 105, (R)-4-((1-(3-(difluoromethyl)-2-fluorophenyl)ethyl)amino)-1-(ethylamino)-6-(1-methylcyclopropyl) pyrido[3,4-d]pyridazin-7(6H)-one], the values for the IC50 (in assay [1]; against SOS1) were 58.1 nM and 4.7 nM, respectively.

For the molecule `C[C@@H](Nc1nnc(N2CCN(C)C[C@@H]2C)c2cc(=O)n(C3(C)CC3)cc12)c1cccc(C(F)F)c1F` [Example 195, 4-(((R)-1-(3-(difluoromethyl)-2-fluorophenyl)ethyl)amino)-1-((S)-2,4-dimethylpiperazin-1-yl)-6-(1-methylcyclopropyl) pyrido[3,4-d]pyridazin-7(6H)-one], the values for the IC50 (in assay [1]; against SOS1) were 25.6 nM and 3.7 nM, respectively.

For `C[C@@H](Nc1nnc(N2CCC2)c2cc(=O)n(C3(C)CC3)cc12)c1cccc(C(F)F)c1F` [Example 16, (R)-1-(azetidin-1-yl)-4-((1-(3-(difluoromethyl)-2-fluorophenyl)ethyl)amino)-6-(1-methylcyclopropyl) pyrido[3,4-d]pyridazin-7(6H)-one formate], the IC50 worked out at 57.8 nM in assay [1] and 4.1 nM against SOS1.

The values above are taken from EP4722213A1, “NITROGEN-CONTAINING FUNCTIONAL GROUP-SUBSTITUTED PYRIDAZINOPYRIDONE DERIVATIVE AND USE THEREOF” (Sichuan Huiyu Pharmaceutical Co., Ltd., priority 2023, dated 2024).
